The source of these data is PMC10092101 (Chemmedchem, 2022).

One experiment relates to CCRL2. The note with it: cited from earlier work.
In another experiment the test system is GPR1. The note with it: ref [13], [22]; cited from earlier work.
Experiment [1] has as its system CMKLR1. The following applies: ref [13], [22]; cited from earlier work.
Another experiment has as its target T1, Nluc‐GPR1‐eYFP (human, UniProt P46091 1-355).
T1 sequence: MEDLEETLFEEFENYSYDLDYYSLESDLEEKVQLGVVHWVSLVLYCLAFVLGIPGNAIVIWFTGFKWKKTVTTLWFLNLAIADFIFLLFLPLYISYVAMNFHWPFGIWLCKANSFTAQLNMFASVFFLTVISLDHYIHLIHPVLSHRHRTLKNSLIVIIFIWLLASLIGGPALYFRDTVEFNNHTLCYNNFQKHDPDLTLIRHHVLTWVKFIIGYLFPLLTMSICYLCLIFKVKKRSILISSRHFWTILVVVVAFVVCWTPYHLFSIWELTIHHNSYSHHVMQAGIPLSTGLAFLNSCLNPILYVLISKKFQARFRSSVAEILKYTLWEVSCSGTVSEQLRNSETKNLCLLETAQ
Briefly: FRET or BRET.

In another experiment the target is T2, Nluc‐CMKLR1‐eYFP (human, UniProt Q99788-2 1-371).
T2 sequence: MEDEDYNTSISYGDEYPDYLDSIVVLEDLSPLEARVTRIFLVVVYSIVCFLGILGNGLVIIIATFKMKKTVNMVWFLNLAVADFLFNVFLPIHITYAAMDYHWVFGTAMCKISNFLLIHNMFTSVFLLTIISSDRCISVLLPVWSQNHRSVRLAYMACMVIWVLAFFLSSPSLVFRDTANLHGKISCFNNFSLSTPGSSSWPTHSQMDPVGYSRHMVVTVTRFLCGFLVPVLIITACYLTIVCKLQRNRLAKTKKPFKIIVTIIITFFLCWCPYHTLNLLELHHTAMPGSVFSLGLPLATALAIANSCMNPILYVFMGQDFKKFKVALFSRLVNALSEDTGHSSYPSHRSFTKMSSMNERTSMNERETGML
Briefly: FRET or BRET.

Experiment [2] addresses T3, CMKLR1 (Homo sapiens, UniProt Q99788).
T3 sequence (Q99788 1-371 isoform Q99788-2): T2 sequence
In words: IP-One assay. The note with it: [K^141(TAMRA)]ChemS157 vs ChemS157, COS-7 cells. It is filed as cell-based.

The target in another experiment is T4, Nluc‐GPR1 (Homo sapiens, UniProt P46091).
T4 sequence (P46091 1-355): T1 sequence
Briefly: NanoBRET saturation binding at Nluc-GPR1. The following applies: Nluc-GPR1 vs Nluc-CMKLR1.

“ChemS157: most active chemerin form truncated at position S157, 137 amino acids; full‐length protein by recombinant expression”: the binding affinity entry is recorded as “high affinity” in the experiment with CCRL2 (ref [13], [22]); “high affinity” with GPR1; “high affinity” with CMKLR1 [1].
As to “chemerin: 16 kDa protein expressed in liver, skin, lung or white adipose tissue; adipokine”, the “cellular response at CCRL2” value in the experiment with CCRL2 (described to bind chemerin, no reference printed directly) was “leads to no cellular response”.

B1: [K^141(TAMRA)]ChemS157 (ligand)
chain: ELTEAQRRGLQVALEEFHKHPPVQWAFQETSVESAVDTPFPAGIFVRLEFKLQQTSCRKRDWKKPECKVRPNGRKRKCLACIKLGSEDKVLGRLVHCPIETQVLREAEEHQETQCLRVQRKGEDPHSFYFPGQFAFS
modifications: TAMRA on the side chain of lysine 141
Consider B1, for which the EC50 in the experiment with Nluc‐GPR1‐eYFP is 0.112 µM; with Nluc‐CMKLR1‐eYFP, 0.0759 µM.

B2: [K^141(TAMRA)]ChemS157: TAMRA‐labeled full-length ChemS157, lysine 141 labeled, semi‐synthetic by native chemical ligation (protein)
chain: B1 chain
modifications: TAMRA on the side chain of lysine 141; left off: [His]10-[…], N-terminal, kept
For the molecule B2, the “EC50 fold higher than ChemS157 without the TAMRA label” value with CMKLR1 [2] is listed as 2.5 fold. Further, the “shift of EC50 between Nluc-CMKLR1 and Nluc-GPR1” value with Nluc‐GPR1 stood at 1.5 fold.
